Several values for one entry are separate records, joined by “and”; a condition that tells them apart may be missing. Equal entries are not always repeated.
Tested on: patients with moderate to severe MGD
Assay: Clinical trial (Example 8): topical Spironolactone (3 mg/ml) in MGD, retrospective pre-post
Conditions: for improvement in self-reported global assessment scores / mean improvement in obstruction score / mean improvement in turbidity score / mean improvement in vascularity score / mean improvement in zone A score: positive = score decrease; for Anterior Blepharitis, mean change / Obstruction, mean change / Turbidity, mean change / Vascularity, mean change / Zone A, mean change / Anterior Blepharitis, Mean / Obstruction, Mean / Turbidity, Mean / Vascularity, Mean / Zone A, Mean: scale 0-4; for Subjective Global Assessment, mean change / Global Evaluation, Mean: scale 0-10
[1] = baseline vs follow up 1, low Schirmer's, n=27
[2] = baseline vs follow up 1, low Schirmer's, n=27, scale 0-3
[3] = baseline vs follow up 1, normal Schirmer's, n=75
[4] = final follow-up, patients with >1 follow-ups, low Schirmer's, n=10
[5] = final follow-up, patients with >1 follow-ups, low Schirmer's, n=10, scale 0-3
[6] = final follow-up, patients with >1 follow-ups, normal Schirmer's, n=28
[7] = final follow-up, patients with >1 follow-ups, normal Schirmer's, n=28, scale 0-3
[8] = follow-up 1, low Schirmer's, n=27 (FIG. 10)
[9] = follow-up 1, normal Schirmer's, n=75 (FIG. 9)
[10] = follow-up 1, patients with >1 follow-ups, low Schirmer's, n=10
[11] = follow-up 1, patients with >1 follow-ups, low Schirmer's, n=10, scale 0-3

## CC(=O)SC1CC2=CC(=O)CCC2(C)C2CCC3(C)C(CCC34CCC(=O)O4)C12 (stereo not drawn) [spironolactone, 7α-acetylthio-3-oxo-17α-pregn-4-ene-21,17-carbolactone]
[1]
  Schirmer's OD, mean change: 2.61±7.03 mm and 2.611 mm
  Schirmer's OS, mean change: 2.33±4.74 mm and 2.327 mm
  Vision OS, mean change: −0.0198±0.078 log Mar units and −0.0198 log Mar units
  improvement in self-reported global assessment scores: 0.98±2.18
  mean improvement in obstruction score: 0.39±1.48
  mean improvement in turbidity score: 0.69±0.76
  mean improvement in vascularity score: 0.33±0.55
  mean improvement in zone A score: 0.63±1.21
  Anterior Blepharitis, mean change: 0.0±0.64 and 0
  Obstruction, mean change: −0.3889
  Turbidity, mean change: −0.6852
  Vascularity, mean change: −0.3333
  Zone A, mean change: −0.6296
  Subjective Global Assessment, mean change: −0.9815
[2]
  Keratitis OS Corneal, mean change: 0±0.4 and 0
  Keratitis OS Nasal, mean change: 0.15±0.70 and 0.1538
  Keratitis OS Temporal, mean change: 0.038±0.56 and 0.03846
[3]
  Schirmer's OD, mean change: 0.11±8.07 mm and 0.1096 mm
  Schirmer's OS, mean change: 0.92±9.43 mm and 0.9178 mm
  improvement in self-reported global assessment scores: 1.29±1.80
  mean improvement in obstruction score: 0.36±0.90
  mean improvement in turbidity score: 0.93±0.73
  mean improvement in vascularity score: 0.31±0.713
  mean improvement in zone A score: 0.53±0.83
  Anterior Blepharitis, mean change: 0.04±0.70 and 0.04
  Obstruction, mean change: −0.3633
  Turbidity, mean change: −0.9267
  Vascularity, mean change: −0.31
  Zone A, mean change: −0.5533
  Subjective Global Assessment, mean change: −1.287
Baseline vs follow up 1, normal Schirmer's, n=75, scale 0-3
  Keratitis OS Corneal, mean change: 0±0.32 and 0
[4]
  Schirmer's OD, Mean: 11.7±10.94 and 11.7
  Schirmer's OS, Mean: 8.78±9.98 and 8.778
  Vision OD, Mean: 0.13±0.15 log Mar units and 0.1264 log Mar units
  Vision OS, Mean: 0.11±0.11 log Mar units and 0.1059 log Mar units
  Anterior Blepharitis, Mean: 0.2±0.42 and 0.2
  Obstruction, Mean: 0.75±0.42 and 0.75
  Turbidity, Mean: 2.1±0.74 and 2.1
  Vascularity, Mean: 1.4±0.77 and 1.4
  Zone A, Mean: 2.8±0.79 and 2.8
  Global Evaluation, Mean: 4.4±2.62 and 4.4
[5]
  Keratitis OD Corneal, Mean: 0.0±0.0 and 0
  Keratitis OD Nasal, Mean: 0.75±0.63 and 0.75
  Keratitis OD Temporal, Mean: 0.7±0.71 and 0.7
  Keratitis OS Corneal, Mean: 0.33±0.5 and 0.3333
  Keratitis OS Nasal, Mean: 1.06±0.92 and 1.056
  Keratitis OS Temporal, Mean: 0.83±0.79 and 0.8333
[6]
  Schirmer's OD, Mean: 18.52±9.83 and 18.52
  Schirmer's OS, Mean: 17.04±8.48 and 17.04
  Vision OD, Mean: 0.05±0.18 log Mar units and 0.04593 log Mar units
  Vision OS, Mean: 0.05±0.12 log Mar units and 0.04933 log Mar units
  Anterior Blepharitis, Mean: 0.32±0.78 and 0.3214
  Obstruction, Mean: 1.05±0.71 and 1.054
  Turbidity, Mean: 1.80±0.83 and 1.804
  Vascularity, Mean: 1.13±0.91 and 1.125
  Zone A, Mean: 2.71±0.80 and 2.714
  Global Evaluation, Mean: 3.55±1.30 and 3.554
[7]
  Keratitis OD Corneal, Mean: 0.0±0.0 and 0
  Keratitis OD Nasal, Mean: 0.63±0.63 and 0.625
  Keratitis OD Temporal, Mean: 0.55±0.60 and 0.5536
  Keratitis OS Corneal, Mean: 0.16±0.49 and 0.1607
  Keratitis OS Nasal, Mean: 0.75±0.57 and 0.75
  Keratitis OS Temporal, Mean: 0.70±0.57 and 0.6964
follow-up 1, low Schirmer's, n=27
  increase in Schirmer's I scores: approximately 40%
[8]
  percent reduction in Global Evaluation score from baseline: 22.98%
  percent reduction in Turbidity score from baseline: 30.70%
  percent reduction in Vascularity score from baseline: 30.48%
  percent reduction in Zone A score from baseline: 22.65%
[9]
  percent reduction in Global Evaluation score from baseline: 27.52%
  percent reduction in Obstruction score from baseline: 31.23%
  percent reduction in Turbidity score from baseline: 41.82%
  percent reduction in Vascularity score from baseline: 24.51%
  percent reduction in Zone A score from baseline: 19.86%
[10]
  Schirmer's OD, Mean: 8.8±6.7 and 8.8
  Schirmer's OS, Mean: 7.22±5.19 and 7.222
  Vision OD, Mean: 0.07±0.10 log Mar units and 0.06633 log Mar units
  Vision OS, Mean: 0.09±0.14 log Mar units and 0.08737 log Mar units
  Anterior Blepharitis, Mean: 0.3±0.67 and 0.3
  Obstruction, Mean: 1.35±1.06 and 1.35
[11]
  Keratitis OD Corneal, Mean: 0.0±0.0 and 0
  Keratitis OD Nasal, Mean: 0.60±0.66 and 0.6
  Keratitis OD Temporal, Mean: 0.65±0.71 and 0.65
  Keratitis OS Corneal, Mean: 0.22±0.44 and 0.2222
  Keratitis OS Nasal, Mean: 1.28±0.57 and 1.278
  Keratitis OS Temporal, Mean: 1.0±0.66 and 1

— patent US20190328753A1, “COMPOSITIONS AND METHODS FOR TREATING OCULAR DISEASES” (priority 2015, published 2019)
